Results: patent US10646508B1, “Method of safely administering nitrate dietary supplements and compositions” (ThermoLife International, LLC, priority 2007, dated 2020)

Assays:
[1] = Intrinsic dissolution profiles (modified Wood's apparatus, USP type II); assay type: physicochemical
Experimental: Objective: The objective of this study was to determine the dissolution characteristics of three different forms of commercially available Creatine including Creatine nitrate (CN), Creatine monohydrate (CM) and buffered Creatine (BC) under different temperature and pH. Methods: Intrinsic dissolution studies were carried out at 37° C. and room temperature in pH 2.5 and 7.4 buffer using modified Wood's apparatus. CN, CM and BC samples (˜0.5 g) were compressed in the dies with constant surface area of 1.21 cm2 using a Carver press at 2000 psi with a dwell time of 10 sec. These dies were placed in the USP dissolution apparatus (type II) containing 140 ml of dissolution media, with paddle speed of 50 rpm. Dissolution medium were collected at definite time intervals over a period of 3 hours for CN and 7 hours for both CM and BC and analyzed for Creatine using a validated HPLC method. Results: A plot of the amount of Creatine dissolved (mg)/surface area (cm2) versus time gives the slope (k′) which is directly proportional to the dissolution rate constant. The k′ (mg/cm2 hr) values for CN, CM and BC in pH 2.5 buffer at room temperature were 293.0±3.48, 59.1±2.06 and 71.1±0.59. At 37° C. these k′ (mg/cm2 hr) values were 327.3±2.66, 97.9±0.88 and 117.9±1.12, respectively. In pH 7.4 buffer, the k′ (mg/cm2 hr) values for CN, CM and BC were 278.9±14.6, 52.1±0.22 and 50.6±0.95 at room temperature and 319.5±14.3, 86.0±5.05 and 96.9±9.28 at 37° C., respectively. Conclusions: The dissolution rates of all three Creatine forms were higher at 37° C. as compared to at room temperature. […] However, the dissolution rate of CN was not affected by the pH of the dissolution media. […] Results of this study further predict a better bioavailability of CN as compared to CM and BC.

[2] = Chemical stability of Creatine forms in solution; assay type: physicochemical; settings: for pH of samples, initial: start of storage; for degradation rate constant (k): ~10 mg/ml
Experimental: Methods: A known concentration (˜10 mg/ml) of CN, CM and BC were prepared in both pH 2.5 and pH 6.8 buffer and stored in stability chambers in screw-capped bottles at 37° C. and 40° C., respectively. Samples were collected at predetermined time points and analyzed for Creatine and degradation products if any, using a validated HPLC method. Changes in the pH, clarity and color of the samples were also determined. The order of degradation and rate constant were determined by graphical method. Results: The degradation rate constants (k) for CN, CM and BC at 37° C. in pH 2.5 buffer were 0.075±0.001, 0.119±0.011 and 0.108±0.002 (day-1) while that at 40° C. in pH 6.8 buffer were 0.115±0.001, 0.015±0.001 and 0.013±0.002 (day-1), respectively. The pH of CN samples at 40° C. in pH 6.8 buffer changed from 2.83±0.01 to 4.31±0.01 within a period of 12 days. The pH changes noticed at 37° C. in pH 2.5 buffer samples over the same period of time for CM, and BC were 3.08±0.01 to 4.12±0.01 and 3.11±0.01 and 4.16±0.01, respectively. […] No change in the color and the clarity was noticed over 12 days. Conclusions: All the Creatine samples followed first order degradation kinetics under both these experimental conditions. […] The major degradation product detected was Creatinine. For CN the increase in pH was higher at 40° C. in pH 6.8 buffer as compared to 37° C. in pH 2.5 buffer. However, opposite effect was noticed for both CM and BC.

[3] = pH 2.5 buffer, room temperature
[4] = pH 7.4 buffer, room temperature

CN(CC(=O)O)C(=N)N.O [CM, Creatine monohydrate, reference compound]
k' (slope, proportional to intrinsic dissolution rate constant) ([1]; pH 2.5 buffer, 37° C.): 97.9±0.88 mg/cm2 hr | k' (slope, proportional to intrinsic dissolution rate constant) [1, 3]: 59.1±2.06 mg/cm2 hr | k' (slope, proportional to intrinsic dissolution rate constant) ([1]; pH 7.4 buffer, 37° C.): 86.0±5.05 mg/cm2 hr | k' (slope, proportional to intrinsic dissolution rate constant) [1, 4]: 52.1±0.22 mg/cm2 hr | pH of samples, after storage ([2]; 37° C. in pH 2.5 buffer, over 12 days): 4.12±0.01 | pH of samples, initial ([2]; 37° C. in pH 2.5 buffer): 3.08±0.01

CN(CC(=O)O)C(=N)N.O=[N+]([O-])O [CN, Creatine nitrate]
k' (slope, proportional to intrinsic dissolution rate constant) ([1]; pH 2.5 buffer, 37° C.): 327.3±2.66 mg/cm2 hr | k' (slope, proportional to intrinsic dissolution rate constant) [1, 3]: 293.0±3.48 mg/cm2 hr | k' (slope, proportional to intrinsic dissolution rate constant) ([1]; pH 7.4 buffer, 37° C.): 319.5±14.3 mg/cm2 hr | k' (slope, proportional to intrinsic dissolution rate constant) [1, 4]: 278.9±14.6 mg/cm2 hr | degradation rate constant (k) ([2]; 37° C. in pH 2.5 buffer): 0.075 ± 0.001 day⁻¹ | pH of samples, initial ([2]; 40° C. in pH 6.8 buffer): 2.83±0.01 | pH of samples, after storage ([2]; 40° C. in pH 6.8 buffer, within a period of 12 days): 4.31±0.01 | degradation rate constant (k) ([2]; 40° C. in pH 6.8 buffer): 0.115 ± 0.001 day⁻¹
